Assay results taken from PubChem BioAssay (NCI).
Values joined by “and” are separate entries in the source; they are usually repeats but may differ in a detail not shown here. Equal values may be shown once.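 48-hour exposure; five concentrations; linearly interpolated endpoints. GI50: concentration for 50% inhibition of growth. TGI: concentration producing complete growth inhibition.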

Test system: MDA-MB-468 breast
Assay: NCI tumour cell line growth inhibition, 48 h

SMILES | GI50 | TGI
NC(N)=N/N=C/c1cccc(Cl)c1Cl | 1.52 µM | 3.24 µM
BrC(Br)(Br)c1cnc2ccccc2n1 | 1.15 µM | 2.76 µM
CC(C)c1cc(CNc2nc(Nc3cc(C4CC4)[nH]n3)cc(N3CCN(C)CC3)n2)on1 | 1.3 µM | 5.5 µM and 2.2 µM
O=C(NCCCNC(=O)OCc1ccc2c(Br)cc(Br)c(O)c2n1)OCc1ccc2c(Br)cc(Br)c(O)c2n1 | > 100 µM | > 100 µM
COc1cc2nc(-c3ccc(-n4cncc4-c4ccc(N)cc4)cc3)sc2c(OC)c1OC | 1.82 µM | 4.47 µM
CCCCN(CCCC)CC(C)(C)C(O)c1ccc(OC)c2ccccc12 (stereo not given) | 1.56 µM | 3.97 µM
O=C1/C(=C/c2ccc([N+](=O)[O-])s2)Oc2ccccc21 | 0.39 µM | 2.17 µM
COc1cccc2c1cc([N+](=O)[O-])c1c(C(=O)O)cc3c(c12)OCO3 | 8.57 µM | 26.1 µM
COC(=O)c1c2c(c(C)[n+]([O-])c1C)C(=O)C(NCc1cccc(OC)c1)=CC2=O | 1.52 µM | 3.84 µM
Cc1ccccc1-n1c(/C=C\c2ccccn2)nc2ccccc2c1=O | 3.61 µM | 32.2 µM
O=C(CC1(O)C(=O)Nc2ccc(Br)cc21)c1ccc(C(=O)NCC2CCC3(CC2)OOC2(CCCCC2)OO3)cc1 (stereo not given) | 3.13 µM | 20.3 µM
O=C1C=CN(C2OC(CO)C(O)C2O)C(=O)C1 (stereo not given) | > 2500 µM | > 2500 µM
CCOC(=O)N1C/C(=C/c2ccc(OC)cc2)C(=O)/C(=C/c2ccc(OC)cc2)C1 | 1.54 µM | 4.04 µM
CN(Cc1ccccc1)S(=O)(=O)/N=C1\NC(=O)NC1=C(Cl)Cl | 0.427 µM | 12.8 µM
CN1CCN(Cc2ccc(NC(=O)c3[nH]ncc3Nc3ncnc4sccc34)cc2)CC1 | 0.38 µM | 2.56 µM
CC[C@@H](C)[C@H]([C@H](CC(=O)N1CCC[C@@H]1[C@@H](OC)[C@H](C)C(=O)N[C@H](Cc1ccccc1)c1nccs1)OC)N(C)C(=O)[C@H](NC(=O)[C@@H](C(C)C)N(C)C)C(C)C | – | 67.2 µM
CCCC1CCC(O)(C(C)(O)C(=O)NC2C(=O)N3NCCCC3C(=O)N(O)C(C)C(=O)N3NCCCC3C(=O)N3NCC(O)CC3C(=O)NC(C)C(=O)OC2C(C)C)OC1CC (stereo not given) | > 25 µM | > 25 µM
Oc1ccc(Br)cc1/C=N/NC(=S)NC12CC3CC(CC(C3)C1)C2 | 1.8 µM | 4.77 µM
N=C(N)c1ccc(-c2ccc(-c3ccc(Cl)cn3)s2)cc1 | 1.6 µM | 3.41 µM
COC(=O)[C@@H](Cc1c[nH]c2ccccc12)NC(=O)/C=C/c1ccccc1 | 2.57 µM | 25.9 µM
COc1cc(-c2nc(SCC(=O)Nc3ccc(C(C)=O)cc3)[nH]c(=O)c2C#N)cc(OC)c1OC | 25.4 µM | > 100 µM
COc1ccc(NC(=O)Nc2ccc(Nc3nc(C)cc(Nc4ccc(C)cc4)n3)cc2)cc1 | 1.58 µM | 3.1 µM
Cc1ccc(S(=O)(=O)NC(CCC(=O)Nc2ccccc2)C(=O)Nc2ccccc2)cc1 (stereo not given) | 0.289 µM | 1.13 µM
CCCCCCNC(=O)Oc1ccc(/C(=C(\C)c2ccccc2)c2ccc(OCCN3CCCCC3)cc2)cc1 | 1.74 µM | 5.17 µM

SMILES | GI50 | TGI
C=CC[Se]C(=O)Cc1c(C)n(C(=O)c2ccc(Cl)cc2)c2ccc(OC)cc12 | 1.87 µM | 3.74 µM
COc1cnc2c(c1)C(=O)c1c-2n(CCCN2CCNCC2)c(=O)c2cc(Cl)ccc12 | 0.552 µM | 2.2 µM
COc1ccc(NC(=O)c2sc3nc(C)c(C(O)c4ccc(OC)cc4)cc3c2N)cc1 (stereo not given) | 0.145 µM | 1.61 µM
CCn1c(-c2nonc2N)nc2c(C#CC(C)(C)O)nc(O[C@@H](CN)c3ccccc3)cc21 | 0.0173 µM | 0.435 µM
COc1cc(C2CC(c3ccc4c(c3)OCO4)=NN2C(C)=O)cc(OC)c1OC (stereo not given) | 0.289 µM | 1.71 µM
COc1ccc(C2C(c3ccccc3)C(=O)N2c2cc(OC)c(OC)c(OC)c2)cc1I (stereo not given) | 0.373 µM | > 100 µM
COc1ccccc1CNC(=O)C1c2ccccc2C(=O)N(CC(C)C)C1c1cccs1 (stereo not given) | 12 µM | 60.5 µM
Cc1[nH]nc2c1N=C(c1ccccc1F)c1cc(C#N)ccc1N2 | 0.0932 µM | 7.2 µM
O=C(NCCN1CCOCC1)Nc1ccc(-c2cc3c(Nc4ccc(Oc5cccc(C(F)(F)F)c5)c(Cl)c4)ncnc3s2)cc1 | 1 µM | 2.5 µM
CN(C)CCOC1(Cc2ccc(Cl)cc2Cl)CCC(C(C)(C)C)CC1 (stereo not given) | 1.78 µM and 1.77 µM | 3.47 µM and 3.49 µM
Oc1ccc(/C=N/Nc2nc3ccccc3s2)c(O)c1 | 2.08 µM | 8.4 µM
CS(=O)c1ccc(-c2nc(-c3ccc(F)cc3)c(-c3ccncc3)[nH]2)cc1 (stereo not given) | 13.4 µM | > 60.6 µM
CC[C@H](Nc1nc(N)nc(N)c1Cl)c1nc2cccc(NCc3ccc(C(=O)NO)cc3)c2c(=O)n1-c1ccccc1 | 1.5 µM | 3.42 µM
O=C(O)c1ccc(-c2ccc(C(=O)O)cc2I)c(I)c1 | > 100 µM | > 100 µM
CCCC(=O)NC(c1ccc2c(c1)OCO2)c1ccc2cccnc2c1O (stereo not given) | 0.388 µM | 2.53 µM
COc1ccc2[nH]c(-c3cccc(N(C)C)c3)cc(=O)c2c1 | 13.3 µM | > 100 µM
CN(C)CCOc1nc2c3cccnc3cc(-c3cccc(Cl)c3)c2c2ncccc12 | 1.43 µM | 2.86 µM
COc1cccc(Cn2cc3c(c2)-c2oncc2CC3)c1 | 0.196 µM | 0.582 µM
CC(F)(F)c1cc(F)ccc1-c1sc2cc(O)ccc2c1Oc1ccc(/C=C/C(=O)O)cc1 | 5.94 µM | 43.4 µM
C[C@@]1(c2ncncc2F)NC(=O)c2cc(-c3cn[nH]c3)ccc21 | 21.6 µM | 51.5 µM
CCCC[P+](c1ccccc1)(c1ccccc1)c1ccccc1 | 0.219 µM | 2.37 µM
CCCCCC(=O)OCC(=O)O[C@@H]1C[C@]2(C(C)C)O[C@@]1(C)[C@@H]1CC[C@@H](C)[C@H]1[C@@H]2OC(=O)/C=C/c1ccccc1 | 27 µM | > 76.9 µM
COc1cc(-c2nn(C(=O)NS(=O)(=O)c3ccc(C)cc3)cc2-c2ccncc2)ccc1Cl | 2.91 µM | 19.8 µM
O=C(Nc1cccc2cccnc12)c1ccc(N2C(=O)[C@@H]3[C@H](C2=O)[C@@H]2C=C[C@H]3C2)cc1 | 14.2 µM | 81.4 µM
